Data: US20220306695A1, “COMPSTATIN ANALOGUES AND THEIR MEDICAL USES” (priority 2019, published 2022)
Positions of bridges follow the written chain, without caps; N, C: chain ends. Non-standard residues stand in square brackets, D forms with d. Residues, ends and D or L forms follow the SMILES beside them. Trp(1-Me) = Cn1cc(C[C@H](N)C(=O)O)c2ccccc21; Sar = CNCC(=O)O

What was measured:
[1] = system: classical complement pathway; experiment: In vitro haemolysis assay (inhibition of classical complement pathway); assay type: cell-based, human; conditions: Table 3; human serum, sensitized sheep red blood cells; read-out: IC50[nM], in vitro analysis of inhibition of hemolysis
Summary of the method: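 Serially diluted compound (9 points) was preincubated 15 min at room temperature with diluted human serum, titrated per batch to give 70-90% maximal haemolysis, in Tris/casein buffer pH 7.4 with Mg2+/Ca2+. Antibody-sensitized sheep erythrocytes were then added for 30 min at 37° C, and the reaction was stopped with EDTA. Haemolysis was read at A405, with IC50 from 4PL fit.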

[2] = Solubility test at 10 mg/mL (visual inspection and light scattering); assay type: physicochemical; conditions: for Solubility, Condition 1 Acetate pH 4: 10 mg/mL compound in 100 mM acetate pH 4; for Solubility, Condition 2 Acetate pH 5: 10 mg/mL compound in 100 mM acetate pH 5; for Solubility, Condition 3 Phosphate pH 6: 10 mg/mL compound in 100 mM phosphate pH 6; for Solubility, Condition 4 Phosphate pH 7: 10 mg/mL compound in 100 mM phosphate pH 7; for Solubility, Condition 5 Phosphate pH 7.5: 10 mg/mL compound in 100 mM phosphate pH 7.5

Structure (SMILES) | IC50 [1] | Solubility, Condition 1 Acetate pH 4 [2] | Solubility, Condition 2 Acetate pH 5 [2] | Solubility, Condition 3 Phosphate pH 6 [2] | Solubility, Condition 4 Phosphate pH 7 [2] | Solubility, Condition 5 Phosphate pH 7.5 [2]
CC[C@H](C)[C@@H]1NC(=O)[C@@H](NC(=O)[C@H](Cc2ccccc2)NC(=O)[C@H](CCC(=O)O)NC(=O)[C@H](CO)NC(C)=O)CSSC[C@@H](C(=O)N(C)CC(=O)NCC(=O)N[C@@H](C)C(=O)N[C@@H](CCC(=O)O)C(=O)N[C@@H](CO)C(N)=O)NC(=O)[C@H](CCCNC(=N)N)NC(=O)[C@H](Cc2c[nH]cn2)NC(=O)[C@H](CCC(=O)O)NC(=O)CNC(=O)[C@H](Cc2c[nH]c3ccccc23)NC(=O)[C@H](CC(=O)O)NC(=O)[C@H](CCC(N)=O)NC(=O)[C@H](Cc2cn(C)c3ccccc23)NC1=O [Compound 74] (Ac-SEFCI[Trp(1-Me)]QDWGEHRC[Sar]GAES-NH2; disulfide 4-14) | < 100 nM | − (denotes lack of solubility at the given condition, as UV absorbance at 340 nm exceeds 0.1 AU and/or it is visibly turbid or contains particles.) | + (denotes solubility at the given condition, as determined by UV absorbance being less than 0.1 AU at 340 nm and the sample being clear when manually inspected.) | + (denotes solubility at the given condition, as determined by UV absorbance being less than 0.1 AU at 340 nm and the sample being clear when manually inspected.) | + (denotes solubility at the given condition, as determined by UV absorbance being less than 0.1 AU at 340 nm and the sample being clear when manually inspected.) | + (denotes solubility at the given condition, as determined by UV absorbance being less than 0.1 AU at 340 nm and the sample being clear when manually inspected.)
CC[C@H](C)[C@@H]1NC(=O)[C@@H](NC(=O)[C@H](Cc2ccccc2)NC(=O)[C@H](CCC(=O)O)NC(=O)[C@H](CO)NC(C)=O)CSSC[C@@H](C(=O)N(C)CC(=O)N[C@@H](CCC(=O)O)C(=O)N[C@@H](C)C(N)=O)NC(=O)[C@H](CCCNC(=N)N)NC(=O)[C@H](Cc2c[nH]cn2)NC(=O)[C@H](CCC(=O)O)NC(=O)CN(C)C(=O)[C@H](Cc2c[nH]c3ccccc23)NC(=O)[C@H](CC(=O)O)NC(=O)[C@H](CCC(N)=O)NC(=O)[C@H](Cc2cn(C)c3ccccc23)NC1=O [Compound 76, Ac-SEFC(1)I[1-Me-Trp]QDW[SarlEHRC(1)[Sar]EA-NH2] (Ac-SEFCI[Trp(1-Me)]QDW[Sar]EHRC[Sar]EA-NH2; disulfide 4-14) | < 100 nM | − (denotes lack of solubility at the given condition, as UV absorbance at 340 nm exceeds 0.1 AU and/or it is visibly turbid or contains particles.) | − (denotes lack of solubility at the given condition, as UV absorbance at 340 nm exceeds 0.1 AU and/or it is visibly turbid or contains particles.) | + (denotes solubility at the given condition, as determined by UV absorbance being less than 0.1 AU at 340 nm and the sample being clear when manually inspected.) | + (denotes solubility at the given condition, as determined by UV absorbance being less than 0.1 AU at 340 nm and the sample being clear when manually inspected.) | + (denotes solubility at the given condition, as determined by UV absorbance being less than 0.1 AU at 340 nm and the sample being clear when manually inspected.)
CC[C@H](C)[C@@H]1NC(=O)[C@@H](NC(=O)[C@H](Cc2ccccc2)NC(=O)[C@H](CCC(=O)O)NC(=O)[C@H](CO)NC(C)=O)CSSC[C@@H](C(=O)N[C@H](C(=O)N[C@@H](CCC(=O)O)C(=O)N[C@@H](C)C(N)=O)[C@@H](C)O)NC(=O)[C@H](CCCNC(=N)N)NC(=O)[C@H](Cc2c[nH]cn2)NC(=O)[C@H](CCC(=O)O)NC(=O)CN(C)C(=O)[C@H](Cc2c[nH]c3ccccc23)NC(=O)[C@H](CC(=O)O)NC(=O)[C@H](CCC(N)=O)NC(=O)[C@H](Cc2cn(C)c3ccccc23)NC1=O [Compound 77, Ac-SEFC(1)I[1-Me-Trp]QDW[Sar]EHRC(1)TEA-NH2] (Ac-SEFCI[Trp(1-Me)]QDW[Sar]EHRCTEA-NH2; disulfide 4-14) | < 100 nM | − (denotes lack of solubility at the given condition, as UV absorbance at 340 nm exceeds 0.1 AU and/or it is visibly turbid or contains particles.) | − (denotes lack of solubility at the given condition, as UV absorbance at 340 nm exceeds 0.1 AU and/or it is visibly turbid or contains particles.) | + (denotes solubility at the given condition, as determined by UV absorbance being less than 0.1 AU at 340 nm and the sample being clear when manually inspected.) | + (denotes solubility at the given condition, as determined by UV absorbance being less than 0.1 AU at 340 nm and the sample being clear when manually inspected.) | + (denotes solubility at the given condition, as determined by UV absorbance being less than 0.1 AU at 340 nm and the sample being clear when manually inspected.)
CC[C@H](C)[C@@H]1NC(=O)[C@@H](NC(=O)[C@H](Cc2ccccc2)NC(=O)[C@H](CCC(=O)O)NC(=O)[C@H](CO)NC(C)=O)CSSC[C@@H](C(=O)N(C)CC(=O)N[C@@H](CCC(=O)O)C(N)=O)NC(=O)[C@H](CCCNC(=N)N)NC(=O)[C@H](Cc2c[nH]cn2)NC(=O)[C@H](CCC(=O)O)NC(=O)CNC(=O)[C@H](Cc2c[nH]c3ccccc23)NC(=O)[C@H](CC(=O)O)NC(=O)[C@H](CCC(N)=O)NC(=O)[C@H](Cc2cn(C)c3ccccc23)NC1=O [Compound 78] (Ac-SEFCI[Trp(1-Me)]QDWGEHRC[Sar]E-NH2; disulfide 4-14) | < 100 nM | − (denotes lack of solubility at the given condition, as UV absorbance at 340 nm exceeds 0.1 AU and/or it is visibly turbid or contains particles.) | − (denotes lack of solubility at the given condition, as UV absorbance at 340 nm exceeds 0.1 AU and/or it is visibly turbid or contains particles.) | + (denotes solubility at the given condition, as determined by UV absorbance being less than 0.1 AU at 340 nm and the sample being clear when manually inspected.) | + (denotes solubility at the given condition, as determined by UV absorbance being less than 0.1 AU at 340 nm and the sample being clear when manually inspected.) | + (denotes solubility at the given condition, as determined by UV absorbance being less than 0.1 AU at 340 nm and the sample being clear when manually inspected.)
CC[C@H](C)[C@@H]1NC(=O)[C@@H](NC(=O)[C@H](Cc2ccccc2)NC(=O)[C@H](CCC(=O)O)NC(=O)[C@H](CO)NC(C)=O)CSSC[C@@H](C(=O)N(C)CC(=O)N[C@@H](CCC(=O)O)C(N)=O)NC(=O)[C@H](CCCNC(=N)N)NC(=O)[C@H](Cc2c[nH]cn2)NC(=O)[C@H](CCC(=O)O)NC(=O)CN(C)C(=O)[C@H](Cc2c[nH]c3ccccc23)NC(=O)[C@H](CC(=O)O)NC(=O)[C@H](CCC(N)=O)NC(=O)[C@H](Cc2cn(C)c3ccccc23)NC1=O [Compound 79, Ac-SEFC(1)I[1-Me-Trp]QDW[Sar]EHRC(1)[Sar]E-NH2] (Ac-SEFCI[Trp(1-Me)]QDW[Sar]EHRC[Sar]E-NH2; disulfide 4-14) | < 100 nM | − (denotes lack of solubility at the given condition, as UV absorbance at 340 nm exceeds 0.1 AU and/or it is visibly turbid or contains particles.) | − (denotes lack of solubility at the given condition, as UV absorbance at 340 nm exceeds 0.1 AU and/or it is visibly turbid or contains particles.) | + (denotes solubility at the given condition, as determined by UV absorbance being less than 0.1 AU at 340 nm and the sample being clear when manually inspected.) | + (denotes solubility at the given condition, as determined by UV absorbance being less than 0.1 AU at 340 nm and the sample being clear when manually inspected.) | + (denotes solubility at the given condition, as determined by UV absorbance being less than 0.1 AU at 340 nm and the sample being clear when manually inspected.)
CC[C@H](C)[C@@H]1NC(=O)[C@@H](NC(=O)[C@H](Cc2ccccc2)NC(=O)[C@H](CCC(=O)O)NC(C)=O)CSSC[C@@H](C(=O)N(C)CC(=O)N[C@@H](CCC(=O)O)C(=O)N[C@@H](C)C(N)=O)NC(=O)[C@H](CCCNC(=N)N)NC(=O)[C@H](Cc2c[nH]cn2)NC(=O)[C@H](CCC(=O)O)NC(=O)CNC(=O)[C@H](Cc2c[nH]c3ccccc23)NC(=O)[C@H](CC(=O)O)NC(=O)[C@H](CCC(N)=O)NC(=O)[C@H](Cc2cn(C)c3ccccc23)NC1=O [Compound 80] (Ac-EFCI[Trp(1-Me)]QDWGEHRC[Sar]EA-NH2; disulfide 3-13) | < 100 nM | − (denotes lack of solubility at the given condition, as UV absorbance at 340 nm exceeds 0.1 AU and/or it is visibly turbid or contains particles.) | − (denotes lack of solubility at the given condition, as UV absorbance at 340 nm exceeds 0.1 AU and/or it is visibly turbid or contains particles.) | + (denotes solubility at the given condition, as determined by UV absorbance being less than 0.1 AU at 340 nm and the sample being clear when manually inspected.) | + (denotes solubility at the given condition, as determined by UV absorbance being less than 0.1 AU at 340 nm and the sample being clear when manually inspected.) | + (denotes solubility at the given condition, as determined by UV absorbance being less than 0.1 AU at 340 nm and the sample being clear when manually inspected.)
